Laboratory results reported in PubChem BioAssay AID248 (DTP/NCI, 2004).
Several values for one entry are separate records, joined by “and”; a condition that tells them apart may be missing. Identical values can stand only once. Inconclusive results and toxic doses are left out. No stated cut-off is given here; in the data, active means T/C of 150% or more; inactive means T/C below 125%.

Test system: L1210 leukemia ip in BDF1 mice, survival T/C
Assay: NCI In Vivo Anticancer Drug Screen. Data for tumor model L1210 Leukemia (intraperitoneal) in B6D2F1 (BDF1) mice
Conditions: endpoint: mean survival time, higher = longer survival
Method in brief: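 Tumor was transplanted into mice, which were then dosed with test compound or vehicle alone. Survival was recorded for each group, and the treated figure was expressed relative to the control figure.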

[1] = dose: 100.0 mg/kg/injection, schedule: Q01DX009 (ip), vehicle: Klucel (hydroxypropylcellulose) (HPC)
[2] = dose: 100.0 mg/kg/injection, schedule: Q04DX003 (ip), vehicle: Klucel (hydroxypropylcellulose) (HPC)
[3] = dose: 200.0 mg/kg/injection, schedule: Q01DX009 (ip), vehicle: Klucel (hydroxypropylcellulose) (HPC)
[4] = dose: 200.0 mg/kg/injection, schedule: Q04DX003 (ip), vehicle: Klucel (hydroxypropylcellulose) (HPC)
[5] = dose: 400.0 mg/kg/injection, schedule: Q01DX009 (ip), vehicle: Klucel (hydroxypropylcellulose) (HPC)
[6] = dose: 400.0 mg/kg/injection, schedule: Q04DX003 (ip), vehicle: Klucel (hydroxypropylcellulose) (HPC)
[7] = dose: 100.0 mg/kg/injection, schedule: Q04DX002 (ip), vehicle: Klucel (hydroxypropylcellulose) (HPC)
[8] = dose: 100.0 mg/kg/injection, schedule: Q01DX001 (ip), vehicle: saline
[9] = dose: 100.0 mg/kg/injection, schedule: Q01DX001 (ip), vehicle: carboxymethylcellulose (CMC)
[10] = dose: 200.0 mg/kg/injection, schedule: Q01DX001 (ip), vehicle: carboxymethylcellulose (CMC)
[11] = dose: 400.0 mg/kg/injection, schedule: Q01DX001 (ip), vehicle: carboxymethylcellulose (CMC)
[12] = dose: 50.0 mg/kg/injection, schedule: Q01DX001 (ip), vehicle: carboxymethylcellulose (CMC)
[13] = dose: 75.0 mg/kg/injection, schedule: Q01DX001 (ip), vehicle: saline

Measured: T/C

CCOC(=O)c1cnc(SC)nc1Nc1ccccc1C
inactive: [1] 96 % of control | [2] 97 % of control | [3] 93 % of control | [4] 98 % of control | [5] 91 % of control | [6] 98 % of control

CC(=O)CC(=O)Nc1ccc(-c2ccc(NC(=O)CC(C)=O)c(Cl)c2)cc1Cl
inactive: [1] 95 % of control | [2] 98 % of control | [3] 97 % of control | [4] 98 % of control | [5] 93 % of control | [6] 91 % of control

C[C@]12CC[C@@H]3c4cc([N+]#N)c([O-])cc4CC[C@H]3[C@@H]1CCC2=O
inactive: dose: 25.0 mg/kg/injection, schedule: Q01DX009 (ip), vehicle: Klucel (hydroxypropylcellulose) (HPC) 103 % of control | dose: 25.0 mg/kg/injection, schedule: Q04DX002 (ip), vehicle: Klucel (hydroxypropylcellulose) (HPC) 96 % of control | dose: 50.0 mg/kg/injection, schedule: Q01DX009 (ip), vehicle: Klucel (hydroxypropylcellulose) (HPC) 92 % of control | dose: 50.0 mg/kg/injection, schedule: Q04DX002 (ip), vehicle: Klucel (hydroxypropylcellulose) (HPC) 122 % of control | [7] 100 % of control and 101 % of control

CCOC(=O)C(O)c1cccc(OC)c1 (configuration not stated)
inactive: dose: 100.0 mg/kg/injection, schedule: Q01DX009 (ip), vehicle: saline sonified 92 % of control | dose: 100.0 mg/kg/injection, schedule: Q04DX003 (ip), vehicle: saline sonified 97 % of control | dose: 200.0 mg/kg/injection, schedule: Q04DX003 (ip), vehicle: saline sonified 94 % of control | dose: 400.0 mg/kg/injection, schedule: Q01DX009 (ip), vehicle: saline sonified 89 % of control | dose: 400.0 mg/kg/injection, schedule: Q04DX003 (ip), vehicle: saline sonified 103 % of control

COc1c2occc2c(OC)c2c(=O)cc(/C=C/c3ccc4ccccc4n3)oc12
inactive: [8] 95 % of control | dose: 200.0 mg/kg/injection, schedule: Q01DX001 (ip), vehicle: saline 95 % of control | dose: 400.0 mg/kg/injection, schedule: Q01DX001 (ip), vehicle: saline 96 % of control

CC(C)=NSc1ccccc1
inactive: dose: 50.0 mg/kg/injection, schedule: Q01DX001 (ip), vehicle: Klucel (hydroxypropylcellulose) (HPC) 99 % of control | dose: 100.0 mg/kg/injection, schedule: Q01DX001 (ip), vehicle: Klucel (hydroxypropylcellulose) (HPC) 97 % of control | dose: 200.0 mg/kg/injection, schedule: Q01DX001 (ip), vehicle: Klucel (hydroxypropylcellulose) (HPC) 97 % of control

S=c1cc(-c2cccs2)ss1
inactive: dose: 50.0 mg/kg/injection, schedule: Q01DX009 (ip), vehicle: saline 107 % of control | dose: 100.0 mg/kg/injection, schedule: Q01DX009 (ip), vehicle: saline 96 % of control and 91 % of control | dose: 100.0 mg/kg/injection, schedule: Q04DX003 (ip), vehicle: saline 93 % of control | dose: 200.0 mg/kg/injection, schedule: Q01DX009 (ip), vehicle: saline 93 % of control and 91 % of control | dose: 200.0 mg/kg/injection, schedule: Q04DX003 (ip), vehicle: saline 105 % of control | dose: 300.0 mg/kg/injection, schedule: Q01DX009 (ip), vehicle: saline 95 % of control | dose: 400.0 mg/kg/injection, schedule: Q01DX009 (ip), vehicle: saline 98 % of control | dose: 400.0 mg/kg/injection, schedule: Q04DX003 (ip), vehicle: saline 88 % of control

CCCCCOC(=O)Nc1cccc2ccccc12
inactive: [7] 94 % of control | dose: 200.0 mg/kg/injection, schedule: Q04DX002 (ip), vehicle: Klucel (hydroxypropylcellulose) (HPC) 94 % of control | dose: 400.0 mg/kg/injection, schedule: Q04DX002 (ip), vehicle: Klucel (hydroxypropylcellulose) (HPC) 98 % of control

CCOC1(OCC)CCS(=O)(=O)C1c1ccccc1 (configuration not stated)
inactive: dose: 100.0 mg/kg/injection, schedule: Q01DX001 (ip), vehicle: acetone 104 % of control | dose: 100.0 mg/kg/injection, schedule: Q01DX009 (ip), vehicle: acetone 98 % of control | dose: 200.0 mg/kg/injection, schedule: Q01DX001 (ip), vehicle: acetone 98 % of control | dose: 200.0 mg/kg/injection, schedule: Q01DX009 (ip), vehicle: acetone 104 % of control | dose: 400.0 mg/kg/injection, schedule: Q01DX001 (ip), vehicle: acetone 96 % of control | dose: 400.0 mg/kg/injection, schedule: Q01DX009 (ip), vehicle: acetone 100 % of control

O=C(O)C1Cc2ccccc2CN1 (configuration not stated)
inactive: dose: 25.0 mg/kg/injection, schedule: Q01DX009 (ip), vehicle: saline with Tween-80 95 % of control | dose: 50.0 mg/kg/injection, schedule: Q01DX009 (ip), vehicle: saline with Tween-80 98 % of control | dose: 100.0 mg/kg/injection, schedule: Q01DX009 (ip), vehicle: saline with Tween-80 96 % of control and 106 % of control

CCCCCCCCCCCCCCCNC1=C(C)C(=O)C(NCCCCCCCCCCCCCCC)=C(C)C1=O
inactive: [9] 93 % of control | [10] 98 % of control | [11] 89 % of control

COc1cccc2c1[nH]c1cc3ccncc3cc12
inactive: dose: 25.0 mg/kg/injection, schedule: Q01DX001 (ip), vehicle: saline 107 % of control | dose: 50.0 mg/kg/injection, schedule: Q01DX001 (ip), vehicle: saline 112 % of control | [8] 98 % of control and 102 % of control | [2] 95 % of control | [4] 95 % of control

NC(=O)NC(=O)C(Cl)c1ccccc1 (configuration not stated)
inactive: [12] 103 % of control | [9] 97 % of control | [10] 103 % of control | [11] 101 % of control

COC(=O)Nc1nc2ccc(Br)cc2[nH]1
inactive: [1] 100 % of control | [2] 92 % of control | [3] 100 % of control | [4] 96 % of control | [5] 109 % of control | [6] 94 % of control

COC(=O)C12OCC34C(CC5C(C)=C(O)C(=O)CC5(C)C3C(O)C1O)OC(=O)C(OC(=O)/C=C(\C)C(C)(C)O)C24 (configuration not stated)
inactive: dose: 0.06 mg/kg/injection, schedule: Q01DX009 (ip), vehicle: saline with Tween-80 116 % of control | dose: 0.5 mg/kg/injection, schedule: Q01DX009 (ip), vehicle: saline with Tween-80 112 % of control | dose: 1.0 mg/kg/injection, schedule: Q01DX009 (ip), vehicle: saline with Tween-80 105 % of control | dose: 2.0 mg/kg/injection, schedule: Q01DX009 (ip), vehicle: saline with Tween-80 107 % of control

Cc1ccc(S)cc1.[Pb]
inactive: [12] 98 % of control | [9] 93 % of control | [10] 103 % of control | [11] 93 % of control

O=c1[nH]c(=O)c2cc3ccccc3nc2[nH]1
inactive: [12] 97 % of control | [9] 101 % of control | [10] 95 % of control | [11] 97 % of control

COC(=O)C[CH2][Sn]([Br])([Br])[c]1ccccc1
inactive: dose: 100.0 mg/kg/injection, schedule: Q04DX002 (ip), vehicle: saline with Tween-80 95 % of control

CCC[N+](C)(C)C1CCCCC1
inactive: [13] 96 % of control and 94 % of control

O=C(O)C1=C/C(=C\C=[N+]2c3cc(O)c(OC4OC(CO)C(O)C(O)C4O)cc3CC2C(=O)[O-])CC(C(=O)O)N1 (configuration not stated)
inactive: dose: 100.0 mg/kg/injection, schedule: Q04DX003 (ip), vehicle: saline with Tween-80 97 % of control | dose: 200.0 mg/kg/injection, schedule: Q04DX003 (ip), vehicle: saline with Tween-80 94 % of control | dose: 400.0 mg/kg/injection, schedule: Q04DX003 (ip), vehicle: saline with Tween-80 95 % of control

COP(N)(=S)OC
inactive: [13] 101 % of control | dose: 150.0 mg/kg/injection, schedule: Q01DX001 (ip), vehicle: saline 98 % of control | dose: 300.0 mg/kg/injection, schedule: Q01DX001 (ip), vehicle: saline 104 % of control

CN1CC(CO)=CC2c3cccc4[nH]cc(c34)CC21 (configuration not stated)
inactive: [8] 94 % of control
